Assay type in all cases: in vivo, human
Data set [1] can be described thus: SpectraCell test of Vitamin D levels (Example 1). Conditions: after a month of treatment; Vitamin D 5,000 units daily; 55 is adequate. The source says: A sufficient amount can be determined by the skilled person by making a routine assessment of certain parameters of the patient to undergo the administration, such as, but not limited to, age, weight, gender, history of illness and/or other lifestyle factors including smoking, alcohol consumption and the level of exercise. Furthermore the skilled person can ascertain whether a dose has been sufficient to raise the vitamin D blood concentration to a sufficient amount by performing routine biochemical and analytical assays on a biological sample obtained from the subject. Preferably, the sample upon which said analysis is to be performed is blood. Examples of such well known assays include but are not limited to mass spectrometry, where the level of vitamin D or active metabolites thereof can be quantitatively measured. A sufficient amount is therefore an amount that achieves the desired blood vitamin D concentration. The desired concentration can be achieved after single administration or after repeated administrations of a dose of vitamin D or an active metabolite thereof. […]

Data set [2] relates to Thyroiditis. In words: Case report Example 2: patient with thyroiditis treated with LDN and Vitamin D. Conditions: 5,000 units of Vitamin D per day, before naltrexone.
Text: This antibody activity then can interfere with the ability to incorporate iodine into the thyroid molecule, thus interfering with thyroid cell function.
Data set [3] can be described thus: Standard serum test of vitamin D level (Example 2). Here is the method: The patient was receiving Synthroid as treatment for hypothyroidism, and they also presented with a rare form of macular degeneration requiring intra-ocular injections and interstitial cystitis. […] At the time they were not aware they had autoimmune thyroiditis.
Their dosage for Nature Throid was 97.5 mg twice a day for their thyroid supplementation. Their vitamin D level was 45 ng/ml, T3 was 4.1 and T4 (thyroxine, which converts into T3 in peripheral tissues) was 0.84. Their thyroid has stabilized as shown by these values; the patient's levels are at optimal levels where the T3 is in the upper range.

The nature of data set [4]: Laboratory hormone levels of supplemented hormones (Example 3). The procedure: They were also prescribed Dehydroepiandrosterone (DHEA) 5 mg and Nature Throid thyroid hormone supplement 48.75 mg, progesterone 100 mg every night and testosterone cream 4 mg per day for low libido, and they were taking turmeric and krill oil. They started tapering off the plaquenil.
During treatment estradiol 1.0 mg was started and also at this point they were off the plaquenil for 3 weeks totally. […] In addition, their Free T3 (triiodothyronine) was 3.1.
During the treatment regimen, the administered DHEA was increased to 10 mg. The DHEA hormone was measured to be 203, Estradiol 117, progesterone 0.2, T3 3.3.
The patient's levels are at optimal levels where the T3 is in the upper range.

The subject of data set [5] is Hashimotos Thyroiditis, Fibromyalgia and Eosinophilic Esophaqitis. In words: Case report Example 1: patient treated with LDN and Vitamin D. Conditions: LDN 1.5 to 4.5 mg daily, Vitamin D 5,000 then 7,000 units per day. Here is the method:
Patient's symptoms included severe fatigue and muscle aches and pains over their body from the fibromyalgia. They were already taking Vitamin D at a daily dosage of 5,000 units and 130 mg of Nature Throid supplementation (a porcine product). For the first week of LDN treatment, the patient was administered daily dosages of 1.5 mg LDN and the 5,000 units of Vitamin D continued. During the second week, the daily dosage of LDN was increased to 3.0 mg. During the third week, the daily dosage of LDN was increased to 4.5 mg. […] Administration of Vitamin D was increased to 7,000 units per day.
Her thyroid medication requirements were reduced. Her symptoms of fibromyalgia were resolved after addition of the naltrexone to the regimen.

Data set [6] has as its system Systemic Lupus Erythematosus (SLE) and Sjorgren's Disease. In words: Case report Example 3: patient treated with naltrexone and Vitamin D3. Conditions: plaquenil 200 mg twice a day, before naltrexone.
The mark [7] stands for this setting: testosterone cream 4 mg per day, later measurements.

Turning to Vitamin D, in data set [1], the “Vitamin D levels (SpectraCell test)” value is 47. Also, the “effect in regards to interstitial cystitis” value in data set [2] was “did not seem to have any significant effect”. Also, the “vitamin D 25 OH level” value in data set [3] (5,000 units of vitamin D daily, standard serum test, deficient level) turned out to be 39. Besides, the “vitamin D level” value in data set [3] (during LDN and Vitamin D treatment) amounted to 45 ng/mL.

Regarding `C[C@]12CC[C@H](O)CC1=CC[C@@H]1[C@@H]2CC[C@]2(C)C(=O)CC[C@@H]12` [DHEA, Dehydroepiandrosterone], the figures for the DHEA hormone level in data set [4] (DHEA increased to 10 mg), in data set [4] (last laboratory results) and in data set [4] (later measurements) were 203, 169 and 142, respectively.

In data set [4] (setting [7]), `C[C@]12CC[C@H]3[C@@H](CCC4=CC(=O)CC[C@@]43C)[C@@H]1CC[C@@H]2O` [testosterone] yielded a Free testosterone of 1.3 and a total testosterone of 19.

For the molecule `O=C1CC[C@@]2(O)[C@H]3Cc4ccc(O)c5c4[C@@]2(CCN3CC2CC2)[C@H]1O5` [naltrexone, morphinan-6-one,17-(cyclopropylmethyl)-4,5-epoxy-3,14-dihydroxy-(5a)], the fibromyalgia symptoms result in data set [5] is recorded as “resolved”.

On to `CCN(CCO)CCCC(C)Nc1ccnc2cc(Cl)ccc12` (centres unmarked) [plaquenil], for which the benefit on symptoms entry in data set [6] was “minimal benefit”.
